Measured values published in US20210145806A1, “Methods of Treating Brain Cancer and Related Diagnostic Methods” (Emory University, priority 2019, published 2021).
Entries after “also recorded” stand apart in the source; their conditions may differ. Where two headings read alike, the source gives them in different places.

What was measured:
[1] = test system: SmoA1 murine SHH-activated MB organotypic slice culture; assay: Murine MB organotypic slice culture (OSC), cell death by cleaved caspase 3 staining; settings: 24 h treatment; for cell death (CC3 staining), result in words: relative to vehicle control; for concentration giving significant increase in cell death (CC3 standardized to DAPI): compared to control
[2] = test system: MB tumor stem-like cells (nestin-positive) in SmoA1 OSCs; assay: SmoA1 OSC, CC3 and nestin co-staining (death of tumor stem-like cells); type: cell-based, mouse
Method: DAPI=nuclear stain, DMSO=vehicle. Treatment of human MB cells and SmoA1 OSCs with WP1066 in combination with fisetin further enhances the inhibition of cell proliferation in vitro induction of tumor cell death diffusely ex vivo, but synergistically kills the tumor stem-like cell population specifically.
Given that STA 3 and YB-1 expression colocalized to the cancer stem cell-like cells of the perivascular niche environment, experiments were performed to determine whether combined treatment with these inhibitors, fisetin and WPHH66, leads: to increased tumor cell and/or tumor stem cell like cell death. The effect of combination treatment was evaluated in the in vitro proliferation and colony formation assays. […] Next, experiments were performed to determine whether this effect was more pronounced in the stem cell compartment, where YB-1 and STAT3 are most highly expressed. SmoA1 MB ex vivo brain slices were treated with WP1066, fisetin, or combined treatment thereof. The slices were immunostained for the tumor stem-like cell marker nestin and the cell death marker CC3 to quantify the amount of cell death in the tumor stem-like cells.

[3] = test system: patient-derived non-WNT/SHH MB OSC; assay: Patient-derived MB OSC, cell death by CC3 staining; type: cell-based, human; settings: relative to vehicle controls
Method: Ex vivo, cultures can be used to evaluate drug effects on murine MB tumor cells in their microenvironment. Experiments were performed to determine whether OSC could be used as a “precision medicine” technique in medulloblastoma, e.g., whether biopsy sample from either a newly diagnosed or relapsed medulloblastoma patient could be directly obtained in the operating room, transferred to the lab, and OSCs generated and tested per the protocol, with readout of the efficacy of potential treatments within 3 days. After obtaining fresh tumor tissue from a newly diagnosed patient with a cerebellar tumor, an OSC assay using this patient-derived medulloblastoma specimen was performed. Four tumor slices were treated with vehicle (DMSO or PBS) and 6 tumor slices were treated with WP1066, fisetin, and cisplatin as positive control. […] Therefore this assay can be used at the time of diagnosis, indicating the feasibility of OSC for use in a personalized medicine based testing approach (FIG. 5C) in pediatric brain tumors. Later the neuropathology report confirmed isochromosome 17q in the specimen without MYC or MYCN amplification consistent with a non-WNT/SHH MB.

[4] = test system: Group 3-like D556 MB cells; assay: Proliferation of Group 3-like MB cells
[5] = Homo sapiens, read-out: IC50, inhibition of proliferation, D556

Structure (SMILES) | cell death (CC3 staining), result in words [1] | percentage of CC3/nestin-positive cells (dead nestin-positive cells) [2] | concentration giving significant increase in cell death (CC3 standardized to DAPI) [1] | cell death (CC3 staining), result in words [3] | IC50 [4, 5] | IC50 ([4]; read-out: IC50, inhibition of proliferation, D556) | cell death (CC3 staining), result in words ([3]; listed as Fisetin)
Nc1nc(=S)c2[nH]cnc2[nH]1 [6-thioguinine] | minimal increase in cell death |  |  |  |  |  | 
CS(=O)(=O)OCCCCOS(C)(=O)=O [Busulfan] | minimal increase in cell death |  |  |  |  |  | 
CC(NC(=O)C(C#N)=Cc1cccc(Br)n1)c1ccccc1 (stereo not shown) [WP1066, 3-(6-bromopyridin-2-yl)-2-cyano-N-(1-phenylethyl)acrylamide] | significantly increased cell death; also recorded: induces marked tumor cell death; also recorded: dose-dependent increase in cell death | 1.4% | greater than 1.5 μM | induced cell death; also recorded: Increase in cell death | 1500 nM | 1200 nM | 
N.N.[Cl][Pt][Cl] [cisplatin] |  |  | 2 µM | Increase in cell death |  |  | 
O=c1c(O)c(-c2ccc(O)c(O)c2)oc2cc(O)ccc12 [fisetin, 2-(3,4-dihydroxyphenyl)-3,7-dihydroxy-4H-chromen-4-one] | induces marked tumor cell death; also recorded: dose-dependent increase in cell death | 1.6% | > 4 µM | Increase in cell death | 3600 nM |  | induced cell death
